Tests used:
S. aureus DSM 20231 [1] = assay: fitness (endpoint OD595 vs no drug) (fraction); higher = more growth
Outline: (§1)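 Volumes were 30 µl per well, or 55 µl for S. pneumoniae, in 384-well plates inoculated at OD595 0.01. Media were TSB, LB Lennox or CY at 37 °C, and OD595 was read every 30 min for 14 h with first-reading background subtraction. Fitness is the ratio of optical density at stationary-phase entry to the robust mean of no-drug controls. That ratio is capped at 1.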

S. aureus Newman [2] = assay: as above
Outline: as §1

S. pneumoniae D39V [3] = assay: as above
Outline: as §1

B. subtilis 168 = assay: Bliss interaction score (quartile over a dose matrix) (fitness difference); higher = more antagonism (negative = synergy)
Outline: (§2)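 The Bliss score is observed fitness minus expected fitness, where the expected value is the product of single-drug fitness values inferred from combination data. Fitness is OD595 at entry into stationary phase normalised to the plate's robust no-drug mean and capped at 1. Scores are reported as quartiles spanning technical, biological and donor/recipient replicates.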

S. aureus DSM 20231 [4] = assay: as above
Outline: as §2

S. aureus Newman [5] = assay: as above
Outline: as §2

S. pneumoniae D39V [6] = assay: as above
Outline: as §2
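Throughout, for Bliss interaction score (quartile over a dose matrix): first quartile when negative (synergy) and third quartile when positive (antagonism).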

O=C(O[C@@H]1Cc2c(O)cc(O)cc2O[C@@H]1c1cc(O)c(O)c(O)c1)c1cc(O)c(O)c(O)c1 [EGCG] + Cn1nnc(-c2ccc(-c3ccc(N4C[C@H](CO)OC4=O)cc3F)cn2)n1 [Tedizolid]
fitness
Settings	partner 0.03125 µg/mL	partner 0.0625 µg/mL	partner 0.125 µg/mL	partner 0.25 µg/mL	partner 0.5 µg/mL
S. aureus DSM 20231 [1], first compound 12.5 µg/mL	–	0.865	0.734	0.401	–
S. aureus DSM 20231 [1], first compound 25 µg/mL	–	0.762	0.783	0.569	–
S. aureus DSM 20231 [1], first compound 50 µg/mL	–	0.805	0.714	0.326	–
S. aureus Newman [2], first compound 12.5 µg/mL	–	0.735	0.673	0.329	–
S. aureus Newman [2], first compound 25 µg/mL	–	0.783	0.679	–	–
S. aureus Newman [2], first compound 50 µg/mL	–	0.745	0.653	–	–
S. pneumoniae D39V [3], first compound 12.5 µg/mL	0.913	0.925	–	0.308	0.194
S. pneumoniae D39V [3], first compound 25 µg/mL	0.974	0.94	0.718	0.328	0.107
S. pneumoniae D39V [3], first compound 50 µg/mL	0.993	0.959	0.791	–	0.262

Settings	Bliss interaction score
B. subtilis 168	0.0863
S. aureus DSM 20231 [4]	0.11
S. aureus Newman [5]	-0.0709
S. pneumoniae D39V [6]	-0.0687

CN[C@H](CC(C)C)C(=O)N[C@H]1C(=O)N[C@@H](CC(N)=O)C(=O)N[C@H]2C(=O)N[C@H]3C(=O)N[C@H](C(=O)N[C@H](C(=O)O)c4cc(O)cc(O)c4-c4cc3ccc4O)[C@H](O)c3ccc(c(Cl)c3)Oc3cc2cc(c3O[C@@H]2O[C@H](CO)[C@@H](O)[C@H](O)[C@H]2O[C@H]2C[C@](C)(N)[C@H](O)[C@H](C)O2)Oc2ccc(cc2Cl)[C@H]1O [Vancomycin] + CC1=C\[C@@H](O)CC(=O)Cc2nc(co2)C(=O)N2CCC=C2C(=O)O[C@H](C(C)C)[C@H](C)/C=C/C(=O)NC\C=C\1 [Virginiamycin M1]
Settings	fitness
S. aureus DSM 20231 [1], first compound 0.1875 µg/mL, partner 0.0625 µg/mL	≥ 1
S. aureus DSM 20231 [1], first compound 0.1875 µg/mL, partner 0.125 µg/mL	≥ 1
S. aureus DSM 20231 [1], first compound 0.1875 µg/mL, partner 0.25 µg/mL	0.998
S. aureus DSM 20231 [1], first compound 0.375 µg/mL, partner 0.0625 µg/mL	≥ 1
S. aureus DSM 20231 [1], first compound 0.375 µg/mL, partner 0.125 µg/mL	≥ 1
S. aureus DSM 20231 [1], first compound 0.375 µg/mL, partner 0.25 µg/mL	≥ 1
S. aureus DSM 20231 [1], first compound 0.75 µg/mL, partner 0.0625 µg/mL	≥ 1
S. aureus DSM 20231 [1], first compound 0.75 µg/mL, partner 0.125 µg/mL	≥ 1
S. aureus DSM 20231 [1], first compound 0.75 µg/mL, partner 0.25 µg/mL	≥ 1
S. aureus Newman [2], first compound 0.1875 µg/mL, partner 0.0625 µg/mL	0.991
S. aureus Newman [2], first compound 0.1875 µg/mL, partner 0.125 µg/mL	0.994
S. aureus Newman [2], first compound 0.1875 µg/mL, partner 0.25 µg/mL	0.99
S. aureus Newman [2], first compound 0.375 µg/mL, partner 0.0625 µg/mL	≥ 1
S. aureus Newman [2], first compound 0.375 µg/mL, partner 0.125 µg/mL	0.988
S. aureus Newman [2], first compound 0.375 µg/mL, partner 0.25 µg/mL	0.977
S. aureus Newman [2], first compound 0.75 µg/mL, partner 0.0625 µg/mL	≥ 1
S. aureus Newman [2], first compound 0.75 µg/mL, partner 0.125 µg/mL	0.995
S. aureus Newman [2], first compound 0.75 µg/mL, partner 0.25 µg/mL	0.962
S. pneumoniae D39V [3], first compound 0.03125 µg/mL, partner 0.5 µg/mL	≥ 1
S. pneumoniae D39V [3], first compound 0.03125 µg/mL, partner 1 µg/mL	≥ 1
S. pneumoniae D39V [3], first compound 0.03125 µg/mL, partner 2 µg/mL	0.982
S. pneumoniae D39V [3], first compound 0.0625 µg/mL, partner 0.5 µg/mL	0.982
S. pneumoniae D39V [3], first compound 0.0625 µg/mL, partner 1 µg/mL	0.97
S. pneumoniae D39V [3], first compound 0.0625 µg/mL, partner 2 µg/mL	0.971
S. pneumoniae D39V [3], first compound 0.125 µg/mL, partner 0.5 µg/mL	0.988
S. pneumoniae D39V [3], first compound 0.125 µg/mL, partner 1 µg/mL	0.939
S. pneumoniae D39V [3], first compound 0.125 µg/mL, partner 2 µg/mL	0.945
S. pneumoniae D39V [3], first compound 0.25 µg/mL, partner 2 µg/mL	0.881

fitness, one replicate
Settings	partner 0.15 µg/mL	partner 0.3 µg/mL	partner 0.5 µg/mL	partner 1 µg/mL	partner 2 µg/mL
S. aureus DSM 20231 [1], first compound 0.1875 µg/mL	–	–	0.766	0.687	–
S. aureus DSM 20231 [1], first compound 0.375 µg/mL	–	–	0.727	0.733	–
S. aureus DSM 20231 [1], first compound 0.75 µg/mL	–	–	0.795	0.791	–
S. aureus Newman [2], first compound 0.1875 µg/mL	–	–	0.913	0.98	0.883
S. aureus Newman [2], first compound 0.375 µg/mL	–	–	0.887	0.97	0.861
S. aureus Newman [2], first compound 0.75 µg/mL	–	–	0.815	0.93	0.903
S. pneumoniae D39V [3], first compound 0.125 µg/mL	≥ 1	≥ 1	–	–	–
S. pneumoniae D39V [3], first compound 0.25 µg/mL	0.946	0.993	0.873	0.681	–
S. pneumoniae D39V [3], first compound 0.5 µg/mL	0.355	0.71	0.366	0.0772	–

Settings	Bliss interaction score
B. subtilis 168	-0.0585
S. aureus DSM 20231 [4]	0.0837
S. aureus Newman [5]	0.0634
S. pneumoniae D39V [6]	0.128

From the supplement of paper PMC10627819
